“And” between values parts separate entries of the source, which are not always exact repeats. Equal values may be shown once. “Also recorded” adds a separate entry of the source. Read-outs that look alike come from different tables or passages of the source.
How the values were obtained:
[1] = Effect of UVA irradiation on the absorbance spectrum of DOX (350-600 nm; KDOX at 480 nm); format: physicochemical; conditions: for photoenhancing effect on riboflavin-mediated UVA destruction of DOX (absorbance at 480 nm): 100 μM compound, 0.5 μM riboflavin in PBS without Ca2+ and Mg2+, 0 to 20 minutes UVA
[2] = Half-life of ADR destruction by UVA light in the presence of test compounds (decrease in absorbance at 480 nm); format: physicochemical
[3] = UVA light, 100 μM test compound alone
[4] = UVA light, 100 μM test compound with 0.5 μM riboflavin

Compound: N[C@@H](Cc1ccc(O)cc1)C(=O)O [4-Hydroxy Phenylalanine (Tyrosine), 4-Hydroxy Phenylalanine]
- photoenhancing effect on riboflavin-mediated UVA destruction of DOX (absorbance at 480 nm) ([1]; 20 μM DOX): enhanced; also recorded: greatest photenhancing effect
- effect on the absorbance spectrum of DOX under UVA without riboflavin ([1]; 100 μM tyrosine, 20 μM DOX in PBS pH 7.2): essentially no impact on the absorbance spectrum of DOX

Compound: superoxide dismutase
- effect on DOX inactivation by riboflavin or riboflavin-tyrosine and UVA ([1]; 300 U/ml SOD, 20 μM DOX in PBS): accelerates the rate at which DOX is inactivated

Compound: NC(Cc1c[nH]c2ccccc12)C(=O)O (stereo not drawn) [α-Amino-Indole-3-propionic acid]
- photoenhancing effect on riboflavin-mediated UVA destruction of DOX (absorbance at 480 nm) ([1]; 20 μM DOX): enhanced
- effect on destruction of DOX in a riboflavin formulation by UVA irradiation ([1]; 100 μM tryptophan, 20 μM DOX, 0.5 μM riboflavin in PBS): enhanced

Compound: O=C(O)CCOc1ccc(-c2ccccc2)cc1 [3-(4-Biphenylyloxy) Propionic Acid]
- Half-Life of ADR Destruction, 100 μM Test Compound [2, 3]: 43.0 min
- Half-Life of ADR Destruction, 100 μM Test Compound and 0.5 μM Riboflavin [2, 4]: 43.0 min

Compound: CCC(=O)c1ccc2cc(OC)ccc2c1 [6-Methoxy-propionaphthone]
- Half-Life of ADR Destruction, 100 μM Test Compound [2]: 30.1 min
- Half-Life of ADR Destruction, 100 μM Test Compound and 0.5 μM Riboflavin [2]: 27.4 min

Compound: O=c1[nH]c(=O)c2nccnc2[nH]1 [Lumazine]
- Half-Life of ADR Destruction, 100 μM Test Compound [2, 3]: 5.79 min
- Half-Life of ADR Destruction, 100 μM Test Compound and 0.5 μM Riboflavin [2, 4]: 3.31 min

Compound: O=C1c2ccccc2-c2ccccc21 [Compound 9-Fluorenone, 9-Fluorenone]
- Half-Life of ADR Destruction, 100 μM Test Compound and 0.5 μM Riboflavin [2, 4]: 43.0 min

Compound: O=C1c2cccc(S(=O)(=O)O)c2C(=O)c2cccc(S(=O)(=O)O)c21 [Anthraquinone-1,5-disulfonic acid]
- Half-Life of ADR Destruction, 100 μM Test Compound [2, 3]: 30.1 min
- Half-Life of ADR Destruction, 100 μM Test Compound and 0.5 μM Riboflavin [2, 4]: 23.2 min

Compound: OCc1ccc2ccccc2c1 [2-Naphthalenemethanol]
- Half-Life of ADR Destruction, 100 μM Test Compound and 0.5 μM Riboflavin [2, 4]: 50.2 min

Compound: Nc1ccc(F)cc1 [4-Fluoro Aniline]
- Half-Life of ADR Destruction, 100 μM Test Compound and 0.5 μM Riboflavin [2, 4]: 12.0 min

Compound: COc1cccc(C=CC(=O)O)c1 [3-Methoxy Cinnamic Acid]
- Half-Life of ADR Destruction, 100 μM Test Compound [2, 3]: 43.0 min
- Half-Life of ADR Destruction, 100 μM Test Compound and 0.5 μM Riboflavin [2, 4]: 21.5 min

Compound: NS(=O)(=O)c1ccccc1 [Benzenesulfonamide]
- Half-Life of ADR Destruction, 100 μM Test Compound and 0.5 μM Riboflavin [2]: 50.2 min

Compound: NC1c2ccccc2-c2ccccc21 [9-Amino Fluorene]
- Half-Life of ADR Destruction, 100 μM Test Compound [2, 3]: 75.3 min
- Half-Life of ADR Destruction, 100 μM Test Compound and 0.5 μM Riboflavin [2, 4]: 50.2 min

Compound: Dimethyl-2,3-indolecarboxylic acid
- Half-Life of ADR Destruction, 100 μM Test Compound and 0.5 μM Riboflavin [2, 4]: 12.0 min

Compound: Nc1cc[nH]c(=O)n1 [Cytosine]
- Half-Life of ADR Destruction, 100 μM Test Compound [2, 3]: 50.2 min
- Half-Life of ADR Destruction, 100 μM Test Compound and 0.5 μM Riboflavin [2, 4]: 43.0 min

Compound: Nc1ccc(F)cc1F [2,4-Difluoro Aniline]
- Half-Life of ADR Destruction, 100 μM Test Compound and 0.5 μM Riboflavin [2, 4]: 7.92 min

Compound: O=C(c1ccccc1)c1ccc2n1CCC2C(=O)O (stereo not drawn) [Ketorlac, reference compound]
- Half-Life of ADR Destruction, 100 μM Test Compound [2]: 4.07 min
- Half-Life of ADR Destruction, 100 μM Test Compound and 0.5 μM Riboflavin [2]: 3.81 min

Compound: OCCc1ccc(O)cc1 [4-Hydroxy Phenylethyl Alcohol]
- Half-Life of ADR Destruction, 100 μM Test Compound and 0.5 μM Riboflavin [2, 4]: 50.2 min

Compound: Nc1cccc(F)c1 [3-Fluoro Aniline]
- Half-Life of ADR Destruction, 100 μM Test Compound and 0.5 μM Riboflavin [2, 4]: 5.90 min

Compound: O=C(O)c1ccc2[nH]ccc2c1 [Indole-5-carboxylic acid]
- Half-Life of ADR Destruction, 100 μM Test Compound and 0.5 μM Riboflavin [2, 4]: 12.0 min

Compound: CCCc1ccc(N)cc1 [4-Propyl Aniline]
- Half-Life of ADR Destruction, 100 μM Test Compound and 0.5 μM Riboflavin [2, 4]: 7.34 min

Compound: CC(=O)c1cccn1C [2-Acetyl-1-methyl Pyrrole]
- Half-Life of ADR Destruction, 100 μM Test Compound and 0.5 μM Riboflavin [2, 4]: 50.2 min

Compound: O=C(O)CCC(=O)c1cccc2ccccc12 [γ-Oxo-1-napthalenebutyric acid]
- Half-Life of ADR Destruction, 100 μM Test Compound [2, 3]: 10.0 min
- Half-Life of ADR Destruction, 100 μM Test Compound and 0.5 μM Riboflavin [2, 4]: 8.60 min

Compound: O=C(O)c1ccc[nH]1 [Pyrrole-2-carboxylic acid]
- Half-Life of ADR Destruction, 100 μM Test Compound and 0.5 μM Riboflavin [2, 4]: 23.2 min

Compound: COc1ccc2[nH]cc(C[C@H](N)C(=O)O)c2c1 [5-Methoxy-tryptophan]
- Half-Life of ADR Destruction, 100 μM Test Compound and 0.5 μM Riboflavin [2, 4]: 21.5 min

Compound: O=Cc1c[nH]c2ccccc12 [Indole-3-carboxaldehyde]
- Half-Life of ADR Destruction, 100 μM Test Compound and 0.5 μM Riboflavin [2, 4]: 30.1 min

Compound: O=C(O)c1ccc(-c2ccccc2)cc1 [4-Phenyl Benzoic Acid]
- Half-Life of ADR Destruction, 100 μM Test Compound [2, 3]: 43.0 min

Compound: Cc1cc(NC(=O)C2=C(O)c3ccccc3S(=O)(=O)N2C)no1 [Isoxicam, reference compound]
- Half-Life of ADR Destruction, 100 μM Test Compound [2, 3]: 75.3 min

Compound: Nc1ncnc2nc[nH]c12 [Adenine]
- Half-Life of ADR Destruction, 100 μM Test Compound [2, 3]: 50.2 min
- Half-Life of ADR Destruction, 100 μM Test Compound and 0.5 μM Riboflavin [2, 4]: 27.4 min

Compound: Nc1ccc(CCO)cc1 [4-Amino Phenylethyl Alcohol]
- Half-Life of ADR Destruction, 100 μM Test Compound and 0.5 μM Riboflavin [2, 4]: 10.8 min

Compound: Nc1ccc(C(=O)c2ccccc2)cc1 [4-Aminobenzophenone]
- Half-Life of ADR Destruction, 100 μM Test Compound and 0.5 μM Riboflavin [2, 4]: 21.5 min

Compound: COc1ccc2cc(CC(=O)O)ccc2c1 [6-Methoxynaphthalene-2-acetic acid]
- Half-Life of ADR Destruction, 100 μM Test Compound [2, 3]: 17.7 min
- Half-Life of ADR Destruction, 100 μM Test Compound and 0.5 μM Riboflavin [2, 4]: 5.38 min

Compound: CCC(=O)c1ccc(OC)cc1 [4-Methoxypropriophenone]
- Half-Life of ADR Destruction, 100 μM Test Compound and 0.5 μM Riboflavin [2]: 30.1 min

Compound: NCc1ccc(N)cc1 [4-Amino Benzylamine]
- Half-Life of ADR Destruction, 100 μM Test Compound and 0.5 μM Riboflavin [2, 4]: 7.34 ± 1.13 min

Compound: c1ccc2sccc2c1 [Thianaphthalene]
- Half-Life of ADR Destruction, 100 μM Test Compound and 0.5 μM Riboflavin [2, 4]: 50.2 min

Compound: O=C(O)CCc1ccc(O)cc1 [3-(4-Hydroxyphenyl) Propionic Acid]
- Half-Life of ADR Destruction, 100 μM Test Compound and 0.5 μM Riboflavin [2, 4]: 75.3 min

Compound: O=C(O)CCc1ccc(O)c(O)c1 [3-(3,4-Dihydroxyphenyl) Propionic Acid]
- Half-Life of ADR Destruction, 100 μM Test Compound [2, 3]: 75.3 min

Compound: OCCc1ccccc1 [Phenylethyl Alcohol]
- Half-Life of ADR Destruction, 100 μM Test Compound [2, 3]: 43.0 min

Compound: O=C(c1ccc(C(=O)O)c(C(=O)O)c1)c1ccc(C(=O)O)c(C(=O)O)c1 [3,3′,4,4′-Benzophenone-tetracarboxylic acid]
- Half-Life of ADR Destruction, 100 μM Test Compound [2, 3]: 43.0 min

Compound: NCc1ccc(CN)cc1 [4-Aminomethyl Benzylamine]
- Half-Life of ADR Destruction, 100 μM Test Compound and 0.5 μM Riboflavin [2, 4]: 50.2 min and 33.5 min

Compound: Nc1ccc(S(=O)(=O)O)cc1 [4-Amino Benzenesulfonic acid]
- Half-Life of ADR Destruction, 100 μM Test Compound and 0.5 μM Riboflavin [2, 4]: 18.8 min

Compound: O=C(O)c1ccccc1-c1ccccc1 [2-Phenyl Benzoic Acid]
- Half-Life of ADR Destruction, 100 μM Test Compound [2, 3]: 43.0 min
- Half-Life of ADR Destruction, 100 μM Test Compound and 0.5 μM Riboflavin [2, 4]: 43.0 min

Compound: COc1ccc(C(=O)CCC(=O)O)c2ccccc12 [Menbutone, 4-Methoxy-γ-oxo-1-naphthalenebutyric acid, reference compound]
- Half-Life of ADR Destruction, 100 μM Test Compound [2, 3]: 2.21 min
- Half-Life of ADR Destruction, 100 μM Test Compound and 0.5 μM Riboflavin [2, 4]: 1.37 min

Compound: c1ccc(-c2cc3ccccc3[nH]2)cc1 [2-Phenyl Indole]
- Half-Life of ADR Destruction, 100 μM Test Compound and 0.5 μM Riboflavin [2, 4]: 14.3 min

Compound: O=C(O)Cc1ccc2ccccc2c1 [Naphthalene-2-acetic acid]
- Half-Life of ADR Destruction, 100 μM Test Compound [2, 3]: 75.3 min
- Half-Life of ADR Destruction, 100 μM Test Compound and 0.5 μM Riboflavin [2, 4]: 30.1 min

Compound: CC(=O)c1ccc2[nH]c3ccccc3c2c1 [3-Acetylcarbazole]
- Half-Life of ADR Destruction, 100 μM Test Compound ([2]; UVA light, test compound alone, +4% DMSO): 30.1 min
- Half-Life of ADR Destruction, 100 μM Test Compound and 0.5 μM Riboflavin ([2]; UVA light, with 0.5 μM riboflavin, +4% DMSO): 23.2 min

Compound: NC(=O)Cc1c[nH]c2ccccc12 [Indole-3-acetamide]
- Half-Life of ADR Destruction, 100 μM Test Compound and 0.5 μM Riboflavin [2, 4]: 11.2 min

Compound: Cc1cccc2[nH]ccc12 [4-Methyl Indole]
- Half-Life of ADR Destruction, 100 μM Test Compound and 0.5 μM Riboflavin [2, 4]: 18.7 ± 4.0 min

Compound: COc1ccc2ccc(=O)oc2c1 [7-Methoxycoumarin]
- Half-Life of ADR Destruction, 100 μM Test Compound [2, 3]: 20.1 min
- Half-Life of ADR Destruction, 100 μM Test Compound and 0.5 μM Riboflavin [2, 4]: 18.8 min

Compound: O=C(O)C(=O)Cc1c[nH]c2ccccc12 [Indole-3-pyruvic acid]
- Half-Life of ADR Destruction, 100 μM Test Compound and 0.5 μM Riboflavin [2, 4]: 6.74 min

Compound: Nc1ccc2cc(S(=O)(=O)O)cc(O)c2c1 [6-Amino-4-hydroxy-2-naphthalenesulfonic acid]
- Half-Life of ADR Destruction, 100 μM Test Compound and 0.5 μM Riboflavin [2, 4]: 50.2 min

Compound: CC(C)(C)c1ccc(N)cc1 [4-tert-Butyl Aniline]
- Half-Life of ADR Destruction, 100 μM Test Compound and 0.5 μM Riboflavin [2, 4]: 27.4 min

Compound: Cc1cccc2cc[nH]c12 [7-Methyl Indole]
- Half-Life of ADR Destruction, 100 μM Test Compound and 0.5 μM Riboflavin [2, 4]: 16.7 min

Compound: C1CCNC1 [Pyrrolidine]
- Half-Life of ADR Destruction, 100 μM Test Compound and 0.5 μM Riboflavin [2, 4]: 50.2 min

Compound: O=C(O)c1ccc([N+](=O)[O-])cc1 [4-Nitro Benzoic Acid]
- Half-Life of ADR Destruction, 100 μM Test Compound and 0.5 μM Riboflavin [2, 4]: 50.2 min

Compound: Cc1cc2cccc(C)c2[nH]1 [2,7-Dimethyl Indole]
- Half-Life of ADR Destruction, 100 μM Test Compound and 0.5 μM Riboflavin [2, 4]: 6.27 min

Compound: COc1ccc2c(C(=O)C(N)=O)c[nH]c2c1 [6-Methoxy-3-indoleglyoxylamide]
- Half-Life of ADR Destruction, 100 μM Test Compound [2, 3]: 75.3 min
- Half-Life of ADR Destruction, 100 μM Test Compound and 0.5 μM Riboflavin [2, 4]: 30.1 min

Compound: COc1ccc(C(C)=O)cc1 [4′-Methoxyacetophenone]
- Half-Life of ADR Destruction, 100 μM Test Compound and 0.5 μM Riboflavin [2, 4]: 33.4 min

Compound: N[C@@H](Cc1ccccc1O)C(=O)O [2-Hydroxy Phenylalanine]
- Half-Life of ADR Destruction, 100 μM Test Compound and 0.5 μM Riboflavin [2, 4]: 15.1 min

Compound: Nc1ccc(O)c(C(=O)O)c1 [3-Amino-6-Hydroxy Benzoic Acid]
- Half-Life of ADR Destruction, 100 μM Test Compound and 0.5 μM Riboflavin [2, 4]: 301.0 min

Compound: COc1ccccc1O [2-Methoxy Phenol]
- Half-Life of ADR Destruction, 100 μM Test Compound [2, 3]: 50.2 min
- Half-Life of ADR Destruction, 100 μM Test Compound and 0.5 μM Riboflavin [2, 4]: 50.2 min

Compound: Nc1cc(C[C@H](N)C(=O)O)ccc1O [3-Amino-4-Hydroxy Phenylalanine]
- Half-Life of ADR Destruction, 100 μM Test Compound and 0.5 μM Riboflavin [2, 4]: 100.3 min

Compound: O=C(O)CCCc1ccccc1 [4-Phenyl Butyric Acid]
- Half-Life of ADR Destruction, 100 μM Test Compound [2, 3]: 43.0 min
- Half-Life of ADR Destruction, 100 μM Test Compound and 0.5 μM Riboflavin [2, 4]: 33.5 min

Reference: patent publication US20010056085A1, “Methods of using vesicant drug formulations” (priority 1996, published 2001)
